According to US10160748B2 (AbbVie Inc., priority 2015, dated 2018):

What follows are compounds tested against TNFα trimer (Homo sapiens, UniProt P01375) (assay: TNFα FP Competitive Binding Assay). Settings: FP binding assay; 20 nM TNFα trimer, 1 nM OregonGreen488 probe; read-out: TNF IC50.
TNFα trimer, sequence (P01375 77-233 limits assumed): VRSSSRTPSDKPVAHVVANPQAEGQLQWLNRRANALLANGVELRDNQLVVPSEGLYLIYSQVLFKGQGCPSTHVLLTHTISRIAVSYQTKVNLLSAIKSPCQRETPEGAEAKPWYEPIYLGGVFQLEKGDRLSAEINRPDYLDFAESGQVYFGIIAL
How it was run: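 Fluorescence polarization competition: 20 nM TNFα trimer with 1 nM fluorescein-labelled probe in HEPES/NaCl/EDTA/Triton X-100 buffer, compound in 12-point 1:3 dilutions (final top 338 μM or 100 μM). Incubated 18-24 h, background-subtracted mP read, variable-slope dose-response fitting.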
`CN1CCCC(Nc2ccc(Cl)c(Cn3c4cc(-c5cnc(C(C)(C)O)nc5)ccc4c(=O)n3C)c2)C1=O` (centres unmarked) [Example 83, 1-(2-Chloro-5-((1-methyl-2-oxopiperidin-3-yl)amino)benzyl)-6-(2-(2-hydroxypropan-2-yl)pyrimidin-5-yl)-2-methyl-1H-indazol-3(2H)-one] showed an IC50 of 1000 to 10000 nM. For `Cn1c(=O)c2ccc(-c3cnc(N4CCN5C(=O)NC[C@@H]5C4)nc3)cc2n1Cc1nc(CO)ccc1OC(F)F` [Example 84], the IC50 was < 1000 nM. In the case of `Cc1ccc(OC(F)F)c(Cn2c3cc(-c4cnc(C5(C)CCNC5)nc4)ccc3c(=O)n2C)c1` (centres unmarked) [Example 87, 1-(2-(Difluoromethoxy)-5-methylbenzyl)-2-methyl-6-(2-(3-methylpyrrolidin-3-yl)pyrimidin-5-yl)-1H-indazol-3(2H)-one], the IC50 is reported as < 1000 nM. Compound `Cc1ccc(OC(F)F)c(Cn2c3cc(-c4cnc(C5(C)CCN(C)C5)nc4)ccc3c(=O)n2C)c1` (centres unmarked) [Example 88, 1-(2-(Difluoromethoxy)-5-methylbenzyl)-6-(2-(1,3-dimethylpyrrolidin-3-yl)pyrimidin-5-yl)-2-methyl-1H-indazol-3(2H)-one] has an IC50 of 1000 to 10000 nM. In the case of `Cc1ccc(OC(F)F)c(Cn2c3cc(-c4ccc(C(C)(C)N)nc4)c(F)cc3c(=O)n2C)c1` [Example 89, 6-(6-(2-Aminopropan-2-yl)pyridin-3-yl)-1-(2-(difluoromethoxy)-5-methylbenzyl)-5-fluoro-2-methyl-1H-indazol-3(2H)-one 2,2,2-trifluoroacetate], the IC50 is reported as < 1000 nM. `COCc1ccc(OC(F)F)c(Cn2c3cc(-c4cnc(N5CCN(C(C)=O)CC5)nc4)ccc3c(=O)n2C)c1` [Example 90, 6-(2-(4-Acetylpiperazin-1-yl)pyrimidin-5-yl)-1-(2-(difluoromethoxy)-5-(methoxymethyl)benzyl)-2-methyl-1H-indazol-3(2H)-one] was tested, and the IC50 was 1000 to 10000 nM. With `Cn1c(=O)c2ccc(-c3cnc(C4(O)CN(C(=O)CO)C4)nc3)cc2n1Cc1ccccc1OC(F)F` [Example 91, 1-(2-(Difluoromethoxy)benzyl)-6-(2-(3-hydroxy-1-(2-hydroxyacetyl)azetidin-3-yl)pyrimidin-5-yl)-2-methyl-1H-indazol-3(2H)-one] the IC50 was 1000 to 10000 nM. Work on `Cn1c(=O)c2ccc(-c3cnc(C(C)(C)O)nc3)cc2n1Cc1cc(Cn2cn[nH]c2=O)ccc1OC(F)F` [Example 92, 1-(2-(Difluoromethoxy)-((5-oxo-1H-1,2,4-triazol-4(5H)-yl)methy)benzyl)-6-(2-(2-hydroxypropan-2-yl)pyrimidin-5-yl)-2-methyl-1H-indazol-3(2H)-one] yielded an IC50 of 1000 to 10000 nM. In the case of `Cn1c(=O)c2ccc(-c3cnc(N4CCN5C(=O)NC[C@H]5C4)nc3)cc2n1Cc1cc(Cn2cnnc2)ccc1OC(F)F` [Example 93, (S)-7-(5-(1-(5-((4H-1,2,4-triazol-4-yl)methyl)-2-(difluoromethoxy)benzyl)-2-methyl-3-oxo-2,3-dihydro-1H-indazol-6-yl)pyrimidin-2-yl)hexahydroimidazo[1,5-a]pyrazin-3(2H)-one], the IC50 is reported as < 1000 nM. Compound `CCN(Cc1ccc(OC(F)F)c(Cn2c3cc(-c4cnc(N5CCN(C(C)=O)[C@H](C)C5)nc4)ccc3c(=O)n2C)c1)C(C)=O` [Example 94, (R)—N-(3-((6-(2-(4-Acetyl-3-methylpiperazin-1-yl)pyrimidin-5-yl)-2-methyl-3-oxo-2,3-dihydro-1H-indazol-1-yl)methyl)-4-(difluoromethoxy)benzyl)-N-ethylacetamide] has an IC50 of 1000 to 10000 nM. `Cc1ccc(OC(F)F)c(Cn2c3nc(-c4cnc(C(C)(C)O)nc4C)ccc3c(=O)n2C)c1` [Example 95, 1-(2-(Difluoromethoxy)-5-methylbenzyl)-6-(2-(2-hydroxypropan-2-yl)-4-methylpyrimidin-5-yl)-2-methyl-1,2-dihydro-3H-pyrazolo[3,4-b]pyridin-3-one] gave an IC50 of 1000 to 10000 nM. With `Cc1ccc(OC(F)F)c(Cn2c3nc(-c4cnc(C(C)(C)O)nc4C)c(F)cc3c(=O)n2C)c1` [Example 98, 1-(2-(Difluoromethoxy)-5-methylbenzyl)-5-fluoro-6-(2-(2-hydroxypropan-2-yl)-4-methylpyrimidin-5-yl)-2-methyl-1,2-dihydro-3H-pyrazolo[3,4-b]pyridin-3-one] the IC50 was < 1000 nM. With `Cc1ccc(Cl)c(Cn2c3nc(-c4cnc(C(C)(C)O)nc4C)ccc3c(=O)n2C)c1` [Example 99, 1-(2-Chloro-5-methylbenzyl)-6-(2-(2-hydroxypropan-2-yl)-4-methylpyrimidin-5-yl)-2-methyl-1,2-dihydro-3H-pyrazolo[3,4-b]pyridin-3-one] the IC50 was < 1000 nM. Work on `Cn1c(=O)c2cc(F)c(-c3cnc(C(C)(C)O)nc3)cc2n1Cc1cc(CC#N)ccc1OC(F)F` [Example 100, 2-(4-(Difluoromethoxy)-3-((5-fluoro-6-(2-(2-hydroxypropan-2-yl)pyrimidin-5-yl)-2-methyl-3-oxo-2,3-dihydro-1H-indazol-1-yl)methyl)phenyl)acetonitrile] yielded an IC50 of 1000 to 10000 nM. `CC(=O)N1CCN(c2ncc(-c3ccc4c(=O)n(C)n(Cc5cc(Cn6ccc(=O)[nH]6)ccc5OC(F)F)c4c3)cn2)C[C@H]1C` [Example 101, (R)-6-(2-(4-Acetyl-3-methylpiperazin-1-yl)pyrimidin-5-yl)-1-(2-(difluoromethoxy)-5-((3-oxo-2,3-dihydro-H-pyrazol-1-yl)methyl)benzyl)-2-methyl-1,2-dihydro-3H-indazol-3-one] gave an IC50 of 1000 to 10000 nM. For `CC(=O)N1CCN(c2ncc(-c3ccc4c(=O)n(C)n(Cc5cc(COc6ccn[nH]6)ccc5OC(F)F)c4c3)cn2)C[C@H]1C` [Example 102], the IC50 was < 1000 nM. `Cc1ccc(Cl)c(Cn2c3cc(-c4cnc(N5CCN6C(=O)NC[C@H]6C5)nc4)ccc3c(=O)n2C)c1` [Example 103, (S)-7-(5-(1(2-Chloro-5-methylbenzyl)-2-methyl-3-oxo-2,3-dihydro-1H-indazol-6-yl)pyrimidin-2-yl)hexahydroimidazo[1,5-a]pyrazin-3(2H)-one] was tested, and the IC50 was < 1000 nM. With `Cn1c(=O)c2ccc(-c3cnc(C(C)(C)O)nc3)cc2n1Cc1cc(Cn2cncn2)ccc1OC(F)F` [Example 104] the IC50 was < 1000 nM. With `CC(=O)N1CCN(c2ncc(-c3ccc4c(=O)n(C)n(Cc5nc(C)ccc5Cl)c4c3)cn2)C[C@H]1C` [Example 105, (R)-6-(2-(4-Acetyl-3-methylpiperazin-1-yl)pyrimidin-5-yl)-1-((3-chloro-6-methylpyridin-2-yl)methyl)-2-methyl-1,2-dihydro-3H-indazol-3-one] the IC50 was < 1000 nM. For `CN1CCC(Nc2ccc(Cl)c(Cn3c4cc(-c5cnc(C(C)(C)O)nc5)ccc4c(=O)n3C)c2)C1=O` (centres unmarked) [Example 109, 1-(2-Chloro-5-((1-methyl-2-oxopyrrolidin-3-yl)amino)benzyl)-6-(2-(2-hydroxypropan-2-yl)pyrimidin-5-yl)-2-methyl-1H-indazol-3(2H)-one], the IC50 was 1000 to 10000 nM. For `CC(=O)N1CCN(c2ncc(-c3ccc4c(=O)n(C)n(Cc5cc(Cc6cn[nH]c6)ccc5OC(F)F)c4c3)cn2)C[C@H]1C` [Example 110, (R)-1-(5-((1H-Pyrazol-4-yl)methyl)-2-(difluoromethoxy)benzyl)-6-(2-(4-acetyl-3-methylpiperazin-1-yl)pyrimidin-5-yl)-2-methyl-1H-indazol-3(2H)-one], the IC50 was < 1000 nM. For `Cn1c(=O)c2ccc(-c3cnc(C(C)(C)O)nc3)cc2n1Cc1cc(Cc2cn[nH]c2)ccc1OC(F)F` [Example 111, 1-(5-((1H-Pyrazol-4-yl)methyl)-2-(difluoromethoxy)benzyl)-6-(2-(2-hydroxypropan-2-yl)pyrimidin-5-yl)-2-methyl-1H-indazol-3(2H)-one], the IC50 was < 1000 nM. `Cn1c(=O)c2ccc(-c3cnc(N4CCN5C(=O)NC[C@@H]5C4)nc3)cc2n1Cc1cc(Cn2cncn2)ccc1OC(F)F` [Example 113, (R)-7-(5-(1-(5-((1H-1,2,4-Triazol-1-yl)methyl)-2-(difluoromethoxy)benzyl)-2-methyl-3-oxo-2,3-dihydro-1H-indazol-6-yl)pyrimidin-2-yl)hexahydroimidazo[1,5-a]pyrazin-3(2H)-one] was tested, and the IC50 was < 1000 nM. For `CC(=O)N1CCN(c2ncc(-c3ccc4c(=O)n(C)n(Cc5cc(CC(C)O)ccc5OC(F)F)c4c3)cn2)C[C@H]1C` (stereo partly drawn) [Example 114, 6-(2-((R)-4-Acetyl-3-methylpiperazin-1-yl)pyrimidin-5-yl)-1-(2-(difluoromethoxy)-5-(2-hydroxypropyl)benzyl)-2-methyl-1H-indazol-3(2H)-one], the IC50 was 1000 to 10000 nM. With `CC(=O)N1CCN(c2ncc(-c3ccc4c(=O)n(C)n(Cc5cc(CO)ccc5C(F)(F)F)c4c3)cn2)CC1` [Example 115, 6-(2-(4-Acetylpiperazin-1-yl)pyrimidin-5-yl)-1-(5-(hydroxymethyl)-2-(trifluoromethyl)benzyl)-2-methyl-1H-indazol-3(2H)-one] the IC50 was < 1000 nM. For `Cc1cccc(C(C)n2c3cc(-c4cnc(N5CCN(C(=O)CO)[C@H](C)C5)nc4)ccc3c(=O)n2C)c1` (stereo partly drawn) [Example 116, 6-(2-((R)-4-(2-hydroxyacetyl)-3-methylpiperazin-1-yl)pyrimidin-5-yl)-2-methyl-1-(1-(m-tolyl)ethyl)-1H-indazol-3(2H)-one], the IC50 was < 1000 nM. In the case of `CC(=O)N1CCN(c2ncc(-c3ccc4c(=O)n(C)n(Cc5cn(C(C)=O)cc5C(F)(F)F)c4c3)cn2)C[C@H]1C` [Example 119, (R)-6-(2-(4-Acetyl-3-methylpiperazin-1-yl)pyrimidin-5-yl)-1-((1-acetyl-4-(trifluoromethyl)-1H-pyrrol-3-yl)methyl)-2-methyl-1H-indazol-3(2H)-one], the IC50 is reported as < 1000 nM. `Cc1ccc(OC(F)F)c(Cn2c3cc(-c4cnc(C(C)(C)N)nc4)ccc3c(=O)n2C)c1` [Example 120, 6-(2-(2-Aminopropan-2-yl)pyrimidin-5-yl)-1-(2-(difluoromethoxy)-5-methylbenzyl)-2-methyl-1H-indazol-3(2H)-one] was tested, and the IC50 was < 1000 nM. With `C[C@@H]1CN(C(=O)CO)CCN1c1ncc(-c2ccc3c(=O)n(C)n(Cc4ccccc4OC(F)F)c3c2F)cn1` [Example 121, (R)-1-(2-(Difluoromethoxy)benzyl)-7-fluoro-6-(2-(4-(2-hydroxyacetyl)-2-methylpiperazin-1-yl)pyrimidin-5-yl)-2-methyl-1H-indazol-3(2H)-one] the IC50 was < 1000 nM.
